This is an account of results in PMC8230370, “Antiproliferative Illudalane Sesquiterpenes from the Marine Sediment Ascomycete Aspergillus oryzae” (Marine Drugs, 2021).

The test system of data set [1] is A549 (lung) cancer cells. The data set can be described thus: MTT antiproliferative assay, A549 lung carcinoma. It is filed as cell-based, human. The settings on record: 48 h incubation, read-out: IC50 for the Different Carcinoma Cell Lines, A549 (Lung). The protocol:
(§1) The antiproliferative activity of compounds was measured using MTT (3-(4, 5-dimethylthiazol-2-yl)-2,5-diphenyltetrazolium bromide) assay. A549 (lung), HepG2 (liver), and MCF-7 (breast) cancer cells were purchased from the American Type Cell Collection (ATCC, Manassas, VA, USA). The cells were seeded at 5 × 10^4 cells/well (in 100 μL of DMEM) in 96-well microplates. After 24 h incubation at 37 °C, serial dilution (15–250 µM) of each compound was added and incubated for 48 h. Thereafter, 10 μL of the MTT solution (5 mg/mL) was added to each well. After 4 h incubation with the MTT solution, a volume of 100 μL of acidified isopropanol was added to solubilize the formazan product and incubated on a shaker for a further 10 min. Reduced MTT was assayed at 570 nm using a microplate reader (BioTek, Winoosky, VT, USA). Control groups received the same amount of DMSO (0.1%), untreated cells were used as a negative control, whereas cells treated with doxorubicin were used as a positive control. The IC50 (concentration that caused more than 50% inhibition of proliferation) was calculated from a dose-dependent curve. The cell viability percent was calculated = mean absorbance of treated sample/mean absorbance of control ×100.

In data set [2] the test system is HepG2 (liver) cancer cells. As to the kind of experiment: MTT antiproliferative assay, HepG2 liver carcinoma. The settings on record: 48 h incubation, read-out: IC50 for the Different Carcinoma Cell Lines, HepG2 (Liver). The class given is cell-based, human. On the procedure:
as §1
(Tetrazolium dyes change colour on reduction, which living cells bring about.)

Data set [3] has as its system MCF-7 (breast) cancer cells. As to the kind of experiment: MTT antiproliferative assay, MCF-7 breast carcinoma. It is filed as cell-based, human. The note with it: 48 h incubation, MCF-7 cells, read-out: IC50 for the Different Carcinoma Cell Lines, MCF-7 (Breast). The protocol:
as §1

The test system of data set [4] is zebrafish embryos. The data set can be described thus: Zebrafish embryo toxicity screening. The class given is in vivo. The settings on record: for observable toxicity / development of treated zebrafish embryos: up to 3 days post treatment. The text has this: Wild-type zebrafish strain AB/Tuebingen TAB-14(AB/TuebingenTAB-14) (Catalog ID: ZL1438) were obtained from zebrafish international resource center and grown in an animal facility at the Department of Zoology, King Saud University, Riyadh, Kingdom of Saudi Arabia. The fish were maintained and bred following guidelines of the Institutional Animal Care and Use Committee (ICUAC) and zebrafish book. The fertilized embryos were obtained by natural pairwise breeding of adult fish. The fertilized embryos were sorted, dead embryos were removed, and synchronous stage embryos were used for screening.
A stock solution of 25 mM was made by dissolving the compounds in molecular biology grade DMSO (Sigma Aldrich, St. Louis, MI, USA). Zebrafish embryos were exposed to serial dilution (1, 5, 15, 45, 150, and 300 µM) of each compound. The embryos were remained exposed to the compounds for 3 days, and the embryos medium containing the compounds were changed every day. The response of the embryos toward mortality, and embryonic toxicity (teratogenicity) was monitored once after 12 h and then after every 24 h until the end of the experiment. The experiment was repeated at least three times (triplicate biological repeats) by using a new batch of embryos every time. LC50 for zebrafish embryonic toxicity was calculated by using an updated Probit analysis by Finney method.

Structures are written as SMILES. “Also recorded” adds a separate entry of the source. Where two headings read alike, the source gives them in different places.

As a reminder, the IC50 is the point on the concentration scale where inhibition reaches its midpoint. `O=c1cc(CO)c(O)co1` [Compound 3, 4-(hydroxymethyl)-5-hydroxy-2H-pyran-2-one]: the IC50 in data set [1] (Homo sapiens, A549, 48 h) amounted to 208 ± 6.8 µM; in data set [2] (Homo sapiens, HepG2, 48 h) it was 220 ± 3.6 µM; in data set [3] (Homo sapiens, MCF7, 48 h), 225 ± 5.1 µM. Further, the “observable toxicity / development of treated zebrafish embryos” value (shortened to “observable toxicity / development”) in data set [4] is on record as “did not exhibit any observable toxicity; also recorded: developed normally”.
As to `Cc1c2c(cc3c1CCOC3=O)C[C@](C)(CO)C2` [Compound 2, echinolactone D], the IC50 in data set [1] (Homo sapiens, A549, 48 h) is 55.7 ± 2.5 µM; in data set [2] (Homo sapiens, HepG2, 48 h) it was 148 ± 5.6 µM; in data set [3] (Homo sapiens, MCF7, 48 h), 128 ± 2.8 µM. The “observable toxicity / development” value in data set [4] is recorded as “did not exhibit any observable toxicity; also recorded: developed normally”.
The matching figures for `O=Cc1ccc(O)cc1` [Compound 5, 4-hydroxybenzaldehyde]: 97.5 ± 2.6 µM, 243 ± 6.4 µM, 158 ± 5.5 µM and “did not exhibit any observable toxicity; also recorded: developed normally”.
As to `CC(=O)OCc1cc(=O)occ1O` [Compound 4, (5-hydroxy-2-oxo-2H-pyran-4-yl)methyl acetate], the IC50 in data set [1] (Homo sapiens, A549, 48 h) is 89.4 ± 2.3 µM; in data set [2] (Homo sapiens, HepG2, 48 h), 127 ± 6.4 µM; in data set [3] (Homo sapiens, MCF7, 48 h), 171 ± 4.5 µM. The “death of treated embryos” value in data set [4] (after 24 h post treatment, initial development normal) is 100%. The “observable toxicity / development” value in data set [4] is “found dead on day 2”.
With `Cc1c2c(cc3c1[C@@H](O)COC3=O)CC(C)(C)C2` [Compound 1, asperorlactone], the half-inhibitory concentration (IC50) in data set [1] is 72.7 ± 1.1 µM; in data set [1] (Homo sapiens, A549, 48 h), less than 100 µM; in data set [2] it was 86.6 ± 3.2 µM; in data set [2] (Homo sapiens, HepG2, 48 h), less than 100 µM; in data set [3], 106 ± 4.2 µM; in data set [3] (Homo sapiens, MCF7, 48 h), less than 100 µM. For the same compound, in data set [4] (more than 200 µM compound, after 2 days post treatment), the “toxicity in zebrafish embryos” value is “cardiac toxicity (cardiac edema and cardiac hypertrophy”.
For `COc1cccc2c1C(=O)c1c(O)c3c(c(O)c1C2=O)C[C@@](O)(C(=O)CO)C[C@@H]3O[C@H]1C[C@H](N)[C@H](O)[C@H](C)O1` [Doxorubicin, doxorubicin, reference compound], the IC50 was 2.1 ± 0.08 µM in data set [1] (Homo sapiens, A549, 48 h); 2.2 ± 0.15 µM in data set [2] (Homo sapiens, HepG2, 48 h); 1.9 ± 0.05 µM in data set [3] (Homo sapiens, MCF7, 48 h).
